Experimental findings from patent publication US9688816B2, “Polyetherimide compositions and methods for the manufacture and use thereof” (SABIC Global Technologies B.V., priority 2011, dated 2017) are described below.

The term IC50 denotes the concentration that gives 50% inhibition. The low end stands for inhibition by little substance, the high end for a need for much substance.

Experiment [1] deals with alpha or beta in vitro estradiol receptors. The experiment is described as follows: competitive radio-ligand binding assay, statements that do not separate alpha and beta. Set-up: species or system human. Particulars: alpha or beta receptor not separated; for estradiol binding / estradiol displacement: highest concentration 2.5×E-4 M.
Experiment [2] deals with recombinant human estradiol receptors (rhER) beta 1 (β1) (Homo sapiens (Human), UniProt Q92731). Briefly: competitive radio-ligand binding assay, rhER beta 1. The following applies: at as high as 2.5×E-4 molar concentration.
Experiment [3] has as its target recombinant human estradiol receptors (rhER) alpha (α) (Homo sapiens (Human), UniProt P03372). Briefly: competitive radio-ligand binding assay, rhER alpha. The following applies: at as high as 2.5×E-4 molar concentration.

“Also recorded” adds a separate entry of the source.

recombinant human estradiol receptors (rhER) alpha (α), sequence (P03372 whole entry): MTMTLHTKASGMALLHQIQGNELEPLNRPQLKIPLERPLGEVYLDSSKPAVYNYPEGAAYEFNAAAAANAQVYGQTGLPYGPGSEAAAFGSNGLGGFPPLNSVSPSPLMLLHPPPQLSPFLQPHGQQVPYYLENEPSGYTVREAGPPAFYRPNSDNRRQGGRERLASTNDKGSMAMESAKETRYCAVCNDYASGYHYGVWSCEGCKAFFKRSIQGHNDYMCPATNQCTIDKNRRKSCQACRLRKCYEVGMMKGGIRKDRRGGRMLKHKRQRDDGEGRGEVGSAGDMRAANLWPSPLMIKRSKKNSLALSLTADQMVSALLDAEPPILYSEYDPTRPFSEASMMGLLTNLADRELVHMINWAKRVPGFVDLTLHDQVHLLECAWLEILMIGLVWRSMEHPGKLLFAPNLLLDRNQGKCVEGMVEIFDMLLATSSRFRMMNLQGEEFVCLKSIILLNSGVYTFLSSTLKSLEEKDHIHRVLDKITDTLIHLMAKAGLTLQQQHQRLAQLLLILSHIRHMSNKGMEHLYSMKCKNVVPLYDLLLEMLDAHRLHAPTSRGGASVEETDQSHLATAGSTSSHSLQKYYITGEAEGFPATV
recombinant human estradiol receptors (rhER) beta 1 (β1), sequence (Q92731 whole entry): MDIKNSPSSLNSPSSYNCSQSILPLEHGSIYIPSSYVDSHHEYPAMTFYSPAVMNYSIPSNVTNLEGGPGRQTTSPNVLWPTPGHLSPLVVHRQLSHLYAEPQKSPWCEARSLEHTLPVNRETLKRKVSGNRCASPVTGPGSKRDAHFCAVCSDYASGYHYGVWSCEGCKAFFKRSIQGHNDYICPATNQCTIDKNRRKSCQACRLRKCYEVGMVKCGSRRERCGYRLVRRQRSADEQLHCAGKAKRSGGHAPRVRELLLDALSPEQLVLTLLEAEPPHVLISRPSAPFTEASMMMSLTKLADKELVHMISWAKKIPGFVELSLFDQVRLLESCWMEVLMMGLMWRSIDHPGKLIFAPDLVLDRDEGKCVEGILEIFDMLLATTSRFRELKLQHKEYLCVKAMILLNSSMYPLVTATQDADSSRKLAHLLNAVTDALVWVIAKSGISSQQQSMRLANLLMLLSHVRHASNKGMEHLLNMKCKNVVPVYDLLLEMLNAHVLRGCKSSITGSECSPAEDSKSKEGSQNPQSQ

On to “Bis Hydroxy Phenyl Menthane [reference compound]”, for which the “estradiol binding / estradiol displacement” value in experiment [1] is “displace estradiol at low concentrations”.

As for `CC(c1ccccc1)(c1ccc(O)cc1)c1ccc(O)cc1` [D, Bisphenol Acetophenone, reference compound], the “estradiol binding / estradiol displacement” value in experiment [1] is on record as “displace estradiol at low concentrations”.

Consider `O=C1c2ccccc2C(c2ccc(O)cc2)(c2ccc(O)cc2)N1c1ccccc1` [Example 3, N-Phenyl Phenolphthalein Bisphenol], for which the figures for the “estradiol binding / estradiol displacement” value in experiment [1] and in experiment [1] (listed as N-phenyl phenyl phenolphthalein) were “no estradiol binding” and “no displacement”, respectively. In experiment [2], the “estradiol displacement at the beta receptor” value was “no detectible estradiol displacement”. Further, in experiment [3], the “estradiol displacement at the alpha receptor” value is listed as “no detectible estradiol displacement”.

Regarding `CC(C)(c1ccccc1)c1ccc(O)cc1` [B, p-Cumyl Phenol, reference compound], the “estradiol binding / estradiol displacement” value in experiment [1] is “displace estradiol at low concentrations”.

For the molecule `CC(C)(c1ccc(O)cc1)c1cccc(C(C)(C)c2ccc(O)cc2)c1` [K, Bisphenol M, reference compound], the “estradiol binding / estradiol displacement” value in experiment [1] is recorded as “displace estradiol at low concentrations”.

Consider `O=C1OC(c2ccc(O)cc2)(c2ccc(O)cc2)c2ccccc21` [O, Phenolphthalein, reference compound], for which the “estradiol binding / estradiol displacement” value in experiment [1] is on record as “undesirable estradiol displacement at low concentration”.

Take `Cc1cc(C(C)(C)c2cc(C)c(O)c(C)c2)cc(C)c1O` [Example 1, Tetra Methyl BPA]: the “estradiol binding / estradiol displacement” value in experiment [1] is listed as “no estradiol binding”.

As for `Cc1cc(C2(c3ccc(O)c(C)c3)CCCCC2)ccc1O` [G, Dimethyl Cyclohexyl Bisphenol, reference compound], in experiment [1], the “estradiol binding / estradiol displacement” value is “displace estradiol at low concentrations”.

As for “Benzophenone bisphenol [reference compound]”, the “estradiol binding / estradiol displacement” value in experiment [1] is “undesirable estradiol displacement at low concentration”.

For the molecule `Cc1cc(O)ccc1O` [Example 8, Methyl Hydroquinone], the “estradiol binding / estradiol displacement” value in experiment [1] is on record as “no displacement; also recorded: no estradiol binding”. In addition, in experiment [2], the “estradiol displacement at the beta receptor” value is given as “no alpha or beta estradiol displacement”.

On to `Oc1ccc(Oc2ccc(O)cc2)cc1` [Example C, Dihydroxy Diphenyl Ether, reference compound], for which, in experiment [1], the “estradiol binding / estradiol displacement” value is given as “displace estradiol at low concentrations”.

Turning to `Oc1cccc(O)c1` [Example 4, Resorcinol], the “estradiol binding / estradiol displacement” value in experiment [1] is listed as “no estradiol binding”. Also, the “estradiol displacement at the beta receptor” value in experiment [2] was “no detectible estradiol displacement”. Also, the “estradiol displacement at the alpha receptor” value in experiment [3] is reported as “no detectible estradiol displacement”.

“Dimethyl Acetophenone Bisphenol [reference compound]”: in experiment [1], the “estradiol binding / estradiol displacement” value was “displace estradiol at low concentrations”.

Turning to `Oc1ccccc1` [Example 2, Phenol], the “estradiol binding / estradiol displacement” value in experiment [1] is “no estradiol binding”. This molecule gave an IC50 in experiment [1] (highest concentration tested 2.5×E-4 M) of at least 250 µM.

As to Biphenol [Example 6], the “estradiol binding / estradiol displacement” value in experiment [1] is on record as “no estradiol binding”. The “estradiol displacement at the alpha receptor” value in experiment [3] is reported as “no displacement”.

Take `C[C@]12CC[C@@H]3c4ccc(O)cc4CC[C@H]3[C@@H]1CC[C@@H]2O` [A, 17b-estradiol, reference compound]: the “estradiol binding / estradiol displacement” value in experiment [1] is listed as “binds at a very low concentration”.

On to `CC(C)(C)c1cc(O)c(C(C)(C)C)cc1O` [Example 7, Di t-Butyl Hydroquinone], for which the “estradiol binding / estradiol displacement” value in experiment [1] is on record as “no estradiol binding”; in experiment [1] (listed as di-tert butyl hydroquinone), “no displacement”. In addition, in experiment [2], the “estradiol displacement at the beta receptor” value was “no displacement”. The “estradiol displacement at the alpha receptor” value in experiment [3] is recorded as “no displacement”.

With “Diphenolic Acid Methyl Ester [F, reference compound]”, the “estradiol binding / estradiol displacement” value in experiment [1] is “displace estradiol at low concentrations”.

In the case of Spiro Biindane Bisphenol [Example 5], the “estradiol binding / estradiol displacement” value in experiment [1] is on record as “no displacement; also recorded: no estradiol binding”.
